The results in this text go back to PubChem BioAssay (NCI).

What all share (assay): NCI-60 cell line screen, 48 h
Assay [1] deals with 786-0 renal.
Assay [2] deals with EKVX NSCLC.
Assay [3] has as its system HOP-62 NSCLC.
Assay [4] relates to HT29 colon.
Assay [5] has as its system KM12 colon.
Assay [6] relates to M14 melanoma.
In assay [7] the test system is OVCAR-3 ovarian.
For assay [8], the system named is SF-539 CNS.
The test system of assay [9] is SR leukemia.
Assay [10] has as its system UACC-257 melanoma.

Each structure is given as a SMILES string.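 Protocol summary: plate cells (96-well), add compound at 5 concentrations, incubate 48 h, interpolate endpoints linearly. At the GI50, growth is halved. TGI denotes the concentration required for complete inhibition of growth.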

On to `Clc1ccc(C2=Nn3c(nnc3-c3cc(Cl)cc(Cl)c3Cl)SC2)cc1`, for which the GI50 in [1] is 17.1 µM; in assay [2], 45.1 µM; in [3] it was 14.5 µM; in [4], 9.26 µM; in assay [5], 9.15 µM; in assay [6] it was 29 µM. Moreover, the GI50 in assay [7] is 21.2 µM; in assay [8], 20.1 µM; in [9] it was 3.1 µM; in assay [10], 33.2 µM. Further, the TGI was 38 µM in assay [1]; more than 100 µM in [2]; 32.5 µM in assay [3]; more than 100 µM in assay [4]; more than 100 µM in assay [5]; more than 100 µM in assay [6]. The TGI was 50.8 µM in assay [7], 48.3 µM in assay [8], 7.34 µM in [9] and more than 100 µM in assay [10].
Regarding `N#CSc1c[nH]c2ccc(/C=C/C(=O)/C=C(/C=C/c3ccc4[nH]cc(SC#N)c4c3)OB(F)F)cc12`, the GI50 in assay [1] is 0.343 µM; in [2] it was 0.535 µM; in assay [3], 3.86 µM; in [4], 0.394 µM; in [5] it was 1.02 µM; in assay [6], 0.374 µM. Further, the GI50 in [7] is 0.264 µM; in assay [8] it was 1.86 µM; in assay [9], 0.128 µM; in assay [10] it was 2.82 µM. Further, the TGI in assay [1] amounted to 3.44 µM; in assay [2], 3.53 µM; in [3], 38.9 µM; in [4], 2.38 µM; in [5], 4.82 µM; in assay [6] it was 1.68 µM. For the same compound, the values for the TGI in [7], in assay [8] and in [10] were 0.762 µM, 6.17 µM and 33.6 µM, respectively.
Regarding `CN(C)C/C=C/C(=O)Nc1cc2c(Nc3ccc(F)c(Cl)c3F)ncnc2cc1OCCOC(F)F`, the GI50 in assay [1] was 0.348 µM; in assay [2], less than 0.0302 µM; in assay [3] it was 1.31 µM; in assay [4] it was 0.422 µM; in assay [5], 2.04 µM; in assay [6], 1.87 µM. In addition, the GI50 is 0.101 µM in [7], 0.999 µM in assay [8], 0.496 µM in assay [9] and 2.18 µM in assay [10]. Moreover, the TGI in assay [1] is 3.56 µM; in [2], 3 µM; in [3] it was 5.61 µM; in [4], 5 µM; in assay [5] it was 8.23 µM; in assay [6], 6.2 µM. Besides, the TGI in assay [7] is 1.73 µM; in [8], 3.02 µM; in assay [9] it was 4.83 µM; in [10], 10.3 µM.
Turning to `CCN(CC)CCCC(C)Nc1nc(C)cc(Nc2ccc3nc(C)cc(N)c3c2)n1` (centres undefined), the GI50 in [1] was more than 100 µM; in assay [2] it was 53.3 µM; in [3], 38.9 µM; in [4], 24.4 µM; in assay [5] it was 19.3 µM; in assay [6], 33.7 µM. For the same compound, the GI50 in assay [7] is 32.1 µM; in assay [8], 20.8 µM; in assay [9], 0.024 µM; in [10] it was 36.4 µM. Further, the TGI in [1] is more than 100 µM; in assay [2], more than 100 µM; in assay [3], more than 100 µM; in assay [4] it was 75.2 µM; in assay [5], 40.1 µM; in [6], more than 100 µM. The TGI is 96.9 µM in [7], 43.6 µM in assay [8], 22.8 µM in assay [9] and more than 100 µM in [10].
`COc1ccc(-c2nc(C(=O)c3ccccc3)n(CC(=O)c3ccccc3)c2-c2ccc(OC)cc2)cc1`: the GI50 in assay [1], in [2], in [3], in assay [4], in [5] and in assay [6] was more than 100 µM throughout. Moreover, the GI50 in [7], in assay [8], in [9] and in assay [10] was more than 100 µM each time. For the same compound, the TGI in assay [1], in [2], in [3], in assay [4], in assay [5] and in [6] was more than 100 µM throughout. Further, the TGI in assay [7], in assay [8], in [9] and in [10] was more than 100 µM in each case.
Take `O=S(=O)(SCc1ccccc1)C(c1ccccc1)c1ccccc1`: the TGI in assay [1] is more than 100 µM; in assay [2] it was more than 100 µM; in [3] it was more than 100 µM; in assay [4], 71.4 µM; in [5], more than 100 µM; in assay [6], 59.7 µM. For the same compound, the TGI in assay [7] is more than 100 µM; in [8] it was 43.1 µM; in assay [9], 74.6 µM; in [10], more than 100 µM.
For the compound `COC(=O)CCC(=O)Nc1cc(Cl)ccc1Cl`, the TGI in assay [1], in assay [2], in [3], in assay [4], in [5] and in assay [6] was more than 100 µM in each case. Further, the TGI in assay [7], in [8], in assay [9] and in assay [10] was more than 100 µM each time.
As for `O=[N+]([O-])/C=C/c1cc2ccccc2[nH]1`, the TGI in assay [1] is 27.9 µM; in assay [2], 78 µM; in assay [3], 32.4 µM; in [4], 35.5 µM; in assay [5], 25 µM; in assay [6], 28.5 µM. Also, the TGI in [7] was 28.2 µM; in [8], 25.5 µM; in assay [9], 26.8 µM; in [10] it was 29.6 µM.
On to `O=C(O)/C(Cl)=C(\Cl)C(=O)NC1C2CC3CC(C2)CC1C3` (centres undefined), for which the TGI is more than 100 µM in assay [1]; more than 100 µM in assay [2]; more than 100 µM in assay [3]; more than 100 µM in assay [4]; 96.2 µM in [5]; more than 100 µM in assay [6]. In addition, the TGI in assay [7], in [8], in assay [9] and in assay [10] was more than 100 µM each time.
